# Experimental data reported in patent US6280768A, “Berberine alkaloids as a treatment for chronic protozoally induced diarrhea” (PRM Pharmaceuticals, Inc., priority 1997, dated 2001).
# Read-outs that look alike come from different tables or passages of the source.
# How the values were obtained:
# G.lamblia = assay: In vitro growth inhibition of Giardia lamblia; type: cell-based; settings: Giardia duodenalis; for activity at 30 µg/mL / activity at 62 µg/mL / activity at 125 µg/mL / activity at 250 µg/mL / activity at 500 µg/mL / activity at 1000 µg/mL: 48 h; for activity at 30 µg/mL: 30 μg/ml; for activity at 62 µg/mL: 62 μg/ml; for activity at 125 µg/mL: 125 μg/ml; for activity at 250 µg/mL: 250 μg/ml; for activity at 500 µg/mL: 500 μg/ml; for activity at 1000 µg/mL: 1000 μg/ml
# Text: (§1) The protozoa tested were established strains of 3 extracellular protozoan parasites; (1) Giardia lamblia, (2) Trichomonas vaginalis, (3) Entamoeba histolytica, and the intracellular microsporidian parasite (4) Encephalitozoon intestinalis.
# (§2) Culture conditions and media for (1)-(3) and methods for assaying drug susceptibility were as described in Katiyar, S K and Edlind T D, Enhanced Antiparasitic Activity of Lipophilic Tetracyclines: Role of Uptake, Antimicrob. Agents Chemother., vol. 35:2198-2202 (1991), incorporated herein by reference.
# (§3) Cultures of the extracellular parasites were started from frozen stocks and passaged several times over a 2-3 week period to ensure viability, maximal growth rate, and lack of contamination. On day 1 of the assay, log phase cultures were diluted to 5×10^4 cells/ml in fresh medium and aliquoted to 2 ml vials, which were filled to maintain anaerobic conditions. The berberine was dissolved and diluted in water to various concentrations and then added to the cultures. "negative controls" received the vehicle alone.
# (§4) Cultures were incubated at 37° C. with slow rotation. After 48 hours (for T. vaginalis and G. lamblia) and 72 hours (for E. histolytica), cell numbers were determined using a hemocytometer. The concentration of compound inhibiting growth 50% (IC50) relative to controls was estimated from dose response plots. The assays were repeated at least twice.
# (§5) Initially, the berberine was tested over a wide range of concentrations (0.1, 1, 10, 100 and 1000 μg/ml).
# T.vaginalis = assay: In vitro growth inhibition of Trichomonas vaginalis; type: cell-based; settings: for activity at 30 µg/mL / activity at 62 µg/mL / activity at 125 µg/mL / activity at 250 µg/mL / activity at 500 µg/mL / activity at 1000 µg/mL: 48 h; for activity at 30 µg/mL: 30 μg/ml; for activity at 62 µg/mL: 62 μg/ml; for activity at 125 µg/mL: 125 μg/ml; for activity at 250 µg/mL: 250 μg/ml; for activity at 500 µg/mL: 500 μg/ml
# Text: as §1, §2, §3, §4, §5
# E.histolytica = assay: In vitro growth inhibition of Entamoeba histolytica; type: cell-based; settings: for activity at 30 µg/mL: 30 μg/ml; for activity at 125 µg/mL: 125 μg/ml; for activity at 500 µg/mL: 500 μg/ml; for activity at 1000 µg/mL: 1000 μg/ml
# Text: as §1, §2, §3, §4, §5
# E. intestinalis = assay: In vitro growth (spore numbers) of E. intestinalis in infected Vero cells; type: cell-based, Encephalitozoon intestinalis
# Text: as §1
# Cultures of E. intestinalis infected African green monkey kidney (Vero) cells were kindly provided by G. S. Visvesvara, CDC, Atlanta, Ga. The E. intestinalis was originally isolated from the urine of an AIDS patient (J. Clin. Microbiol. 33:930-936, 1995).
# Cells were grown in T25 flasks at 37° C. in a humidified CO2 incubator, and subcultured when confluent (every 3-4 days). The medium was MEM supplemented with Earle's salts, L-glutamine, 5% heat-inactivated fetal bovine serum, fungizone (2 μg/ml) and gentamicin (50 μg/ml). E. intestinalis spores were prepared by centrifugation of infected cell medium (3-4 days old) at 2000×g for 15 min, followed by suspension in fresh medium to give 1-20×10^4 spores/ml (determined with a hemocytometer). […]
# Every 72-96 h after infection, the medium was completely removed, discarded, and replaced with fresh medium plus berberine. The medium from the 4th change (2-3 weeks post infection) was collected into tubes and spore numbers were determined in a hemocytometer. […] Consequently, spore numbers after 3-4 medium changes provided a quantitative measure of the effects of berberine on microsporidia growth.
# microsporidia [1] = assay: Protoberberines in a hamster animal model of microsporidial chronic diarrhea (Example 5); type: in vivo; settings: 52 mg/kg/day oral; for condition of the hamsters / diarrhea: after 10 days; for presence of microsporidia in intestinal biopsy: following therapy
# Method: (§6) Ten hamsters suffering from chronic diarrhea caused by microsporidia are randomized into two groups of 5 hamsters. One group receives the protoberberine palmatine and the second group receives the protoberberine dihydroberberine. The protoberberines are administered orally at a dose rate of 52 mg/kg/day for ten (10) days.
# Cryptosporidium parvum = settings: in vivo; cited from earlier work
# cryptosporidia = settings: cited from earlier work
# microsporidia [2] = assay: Protoberberines in a mouse animal model of microsporidial chronic diarrhea (Example 6); type: in vivo; settings: 52 mg/kg/day oral; for condition of the mice / diarrhea: after 10 days; for presence of microsporidia in intestinal biopsy: following therapy
# Method: as §6, with “mice” for “hamsters”, “mice.” for “hamsters.”, “jatrorrhizine.” for “dihydroberberine.”
# diarrhea = assay: Prophylactic use of berberines in HIV infected patients (Example 7); type: in vivo, human; settings: low dose of Example 2, two months, 25 patients
# Method: Twenty five (25) HIV infected patients, 18 years of age or older, not presenting with chronic diarrhea, are selected. Blood specimens are evaluated to confirm that each patient is HIV seropositive.
# Each of the twenty five (25) patients receives a treatment with berberine according to the low dose of Example 2 for a period of two months.
# [3] = oral, high doses; cited from earlier work
# [4] = growth, 48 hours, estimated from dose response plots
structure (smiles),measurement,setting,value
"COc1ccc2cc3[n+](cc2c1OC)CCc1cc2c(cc1-3)OCO2.Cl [berberine hydrochloride, 5,6-Dihydro-9,10-dimethoxybenzo[g]-1,3-benzodioxolo[5,6-a]quinolizinium hydrochloride]",activity at 30 µg/mL,G.lamblia; Exp. 1,99%
same,activity at 30 µg/mL,G.lamblia; Exp. 2,97%
same,activity at 62 µg/mL,G.lamblia; Exp. 1,89%
same,activity at 62 µg/mL,G.lamblia; Exp. 2,85%
same,activity at 62 µg/mL,G.lamblia; Exp. 3,88%
same,activity at 125 µg/mL,G.lamblia; Exp. 1,79%
same,activity at 125 µg/mL,G.lamblia; Exp. 2,69%
same,activity at 125 µg/mL,G.lamblia; Exp. 3,75%
same,activity at 250 µg/mL,G.lamblia; Exp. 1,63%
same,activity at 250 µg/mL,G.lamblia; Exp. 2,59%
same,activity at 250 µg/mL,G.lamblia; Exp. 3,52%
same,activity at 500 µg/mL,G.lamblia; Exp. 1,40%
same,activity at 500 µg/mL,G.lamblia; Exp. 2,44%
same,activity at 500 µg/mL,G.lamblia; Exp. 3,32%
same,activity at 1000 µg/mL,G.lamblia; Exp. 1,9%
same,activity at 1000 µg/mL,G.lamblia; Exp. 2,20%
same,activity at 1000 µg/mL,G.lamblia; Exp. 3,5%
same,IC50,G.lamblia; [4],350 µg/mL
same,activity at 30 µg/mL,T.vaginalis; Exp. 1,93%
same,activity at 30 µg/mL,T.vaginalis; Exp. 2,99%
same,activity at 30 µg/mL,T.vaginalis; Exp. 3,96%
same,activity at 62 µg/mL,T.vaginalis; Exp. 1,90%
same,activity at 62 µg/mL,T.vaginalis; Exp. 2,98%
same,activity at 62 µg/mL,T.vaginalis; Exp. 3,98%
same,activity at 125 µg/mL,T.vaginalis; Exp. 1,59%
same,activity at 125 µg/mL,T.vaginalis; Exp. 2,60%
same,activity at 125 µg/mL,T.vaginalis; Exp. 3,60%
same,activity at 250 µg/mL,T.vaginalis; Exp. 1,20%
same,activity at 250 µg/mL,T.vaginalis; Exp. 2,28%
same,activity at 250 µg/mL,T.vaginalis; Exp. 3,45%
same,activity at 500 µg/mL,T.vaginalis; Exp. 1,2%
same,activity at 500 µg/mL,T.vaginalis; Exp. 2,3%
same,activity at 500 µg/mL,T.vaginalis; Exp. 3,22%
same,activity at 1000 µg/mL,"T.vaginalis; 1000 μg/ml, Exp. 1, read-out: % growth",1%
same,activity at 1000 µg/mL,"T.vaginalis; 1000 μg/ml, Exp. 2, read-out: % growth",1%
same,activity at 1000 µg/mL,"T.vaginalis; read-out: % growth, 1000 μg/ml, Exp. 3",6.8%
same,IC50,T.vaginalis; [4],170 µg/mL
same,activity at 30 µg/mL,"E.histolytica; 72 h, Exp. 1",102%
same,activity at 30 µg/mL,"E.histolytica; 72 h, Exp. 2",101%
same,activity at 62 µg/mL,"E.histolytica; 72 h, 62 μg/ml, Exp. 2",90%
same,activity at 125 µg/mL,"E.histolytica; 72 h, Exp. 1",100%
same,activity at 125 µg/mL,"E.histolytica; 72 h, Exp. 2",101%
same,activity at 250 µg/mL,"E.histolytica; 72 h, 250 μg/ml, Exp. 2",101%
same,activity at 500 µg/mL,"E.histolytica; 72 h, Exp. 1",100%
same,activity at 500 µg/mL,"E.histolytica; 72 h, Exp. 2",96%
same,activity at 1000 µg/mL,"E.histolytica; 72 h, Exp. 1",72%
same,activity at 1000 µg/mL,"E.histolytica; 72 h, Exp. 2",76%
same,IC50,"E.histolytica; growth, 72 hours, estimated from dose response plots",> 1000 µg/mL
same,activity against the microsporidium E. intestinalis,E. intestinalis,showed activity against the microsporidium E. intestinalis
COc1ccc2c(c1OC)CN1CCc3cc4c(cc3C1=C2)OCO4 [dihydroberberine],condition of the hamsters,microsporidia [1],improved
same,diarrhea,microsporidia [1],none of the hamsters have diarrhea
same,presence of microsporidia in intestinal biopsy,microsporidia [1],does not reveal the presence of microsporidia
NC[C@@H]1O[C@H](O[C@H]2[C@@H](O)[C@H](O[C@@H]3[C@@H](O)[C@H](N)C[C@H](N)[C@H]3O[C@H]3O[C@H](CO)[C@@H](O)[C@H](O)[C@H]3N)O[C@@H]2CO)[C@H](N)[C@@H](O)[C@@H]1O [paromomycin],relapse after cessation of treatment,Cryptosporidium parvum,common
C[C@@H](O)[C@@H]1NC(=O)[C@H](CCCCN)NC(=O)[C@@H](Cc2c[nH]c3ccccc23)NC(=O)[C@H](Cc2ccccc2)NC(=O)[C@@H](NC(=O)[C@H](N)Cc2ccccc2)CSSC[C@@H](C(=O)N[C@H](CO)[C@@H](C)O)NC1=O [octreotide],control of gastrointestinal secretion,cryptosporidia; AIDS patients,control the voluminous gastrointestinal secretion
same,return of diarrhea,cryptosporidia; following cessation of treatment,diarrhea promptly returns
COc1cc2c(cc1O)CC[n+]1cc3c(OC)c(OC)ccc3cc1-2 [jatrorrhizine],condition of the mice,microsporidia [2],improved
same,diarrhea,microsporidia [2],none of the mice have diarrhea
same,presence of microsporidia in intestinal biopsy,microsporidia [2],does not reveal the presence of microsporidia
"COc1ccc2cc3[n+](cc2c1OC)CCc1cc2c(cc1-3)OCO2 [berberine, 5,6-Dihydro-9,10-dimethoxybenzo[g]-1,3-benzodioxolo[5,6-a]quinolizinium]",tolerability / adverse reactions,diarrhea,all of the patients tolerate the treatment well with no or minimal adverse reactions
same,toxicity,[3],nontoxic at high doses
COc1cc2c(cc1OC)-c1cc3ccc(OC)c(OC)c3c[n+]1CC2 [palmatine],condition of the hamsters,microsporidia [1],improved
same,diarrhea,microsporidia [1],none of the hamsters have diarrhea
same,presence of microsporidia in intestinal biopsy,microsporidia [1],does not reveal the presence of microsporidia
same,condition of the mice,microsporidia [2],improved
same,diarrhea,microsporidia [2],none of the mice have diarrhea
same,presence of microsporidia in intestinal biopsy,microsporidia [2],does not reveal the presence of microsporidia
